Experimental data taken from ChEMBL document CHEMBL3507680, “University of Dundee, Gates Library screen for HepG2 cell viability”.

Assay: Human HepG2 cell viability assay in 384 well format
Assay type: toxicity, cell-based
Design: dose 125 nL, time 70.5 hour; cytotoxicity at 70.5 h: concentration not given beside the values
Settings: HepG2 cells, read-out: Inhibition

Row | SMILES | cytotoxicity at 70.5 h
1 | CC1CCN(CCNC(=O)c2ccn(-c3ccc(F)cc3)n2)CC1 | -5.04%
2 | Cc1csc(N2CCN(C(=O)Cc3cccs3)CC2)n1 | -2.84%
3 | CCOc1cc(F)ccc1NC(=O)N(C)Cc1cnn(C)c1 | -5.78%
4 | CCNC(=O)NCCCn1nc2ccccn2c1=O | -9.28%
5 | Cc1ccn2ncc(C(=O)N3CCCC(n4ccnc4C)C3)c2n1 (configuration not stated) | -2.96%
6 | CC(Cn1cccn1)NCc1csc(-c2ncccn2)n1 (configuration not stated) | 3.56%
7 | c1ccc(-c2noc(CCCN3CCCC3Cn3cccn3)n2)cc1 (configuration not stated) | 10.7%
8 | CC(Cn1cccn1)NCc1csc(COc2ccccc2)n1 (configuration not stated) | -2.25%
9 | c1ccc(-c2nc(CN3CCCC(Cn4cncn4)C3)cs2)cc1 (configuration not stated) | -6.56%
10 | CC(O)CN1CCC(CNCc2cccc(C(F)(F)F)c2)CC1 (configuration not stated) | 2.27%
11 | Cc1nnc(CN2CCCC(c3noc(C4CC4)n3)C2)o1 (configuration not stated) | -4.3%
12 | CN1CCCN(C(=O)NCCNc2ncccn2)CC1 | 17.7%
13 | CC(C)(C)c1nc(CN2CCCC(c3noc(C4CC4)n3)C2)no1 (configuration not stated) | -4.22%
14 | c1csc(-c2noc(CCCN3CCCC3Cn3cncn3)n2)c1 (configuration not stated) | 2.46%
15 | c1coc(-c2nc(CN3CCCC(Cn4cncn4)C3)cs2)c1 (configuration not stated) | 20.4%
16 | Cc1cccc(OCC(=O)N2CCN(C3CCOC3=O)CC2)c1C (configuration not stated) | -2.32%
17 | CCCc1ccc(S(=O)(=O)NC(=O)CCC2CCCO2)cc1 (configuration not stated) | 3.11%
18 | COc1ccc2cc(CNCc3c(C)nn(C)c3N(C)C)ccc2c1 | 23%
19 | Cc1nc(-c2ccccc2)n(CC(=O)NC(C)(C)C)n1 | 1.44%
20 | CCC(C)(C)NC(=O)Cn1nc(C)nc1-c1ccccc1 | -0.158%
21 | Cc1cccc(-c2nc(C)nn2CC(=O)NCC(C)C)c1 | 5.13%
22 | O=C1COc2cc(C(=O)N3CCCC(n4cccn4)C3)ccc2N1 (configuration not stated) | -1.96%
23 | Cc1ccc(-c2nc(CN3CCCC(Cn4cncn4)C3)cs2)o1 (configuration not stated) | 6.82%
24 | O=C(NCCOC1CCCCC1)c1ccc(-c2ccco2)[nH]c1=O | 15.1%

Row | SMILES | cytotoxicity at 70.5 h
25 | Cc1csc(C2CCCN(C(=O)c3c[nH]c(C)n3)C2)n1 (configuration not stated) | -1.13%
26 | CCc1csc(C2CCCN(C(=O)c3cc(Cl)c[nH]3)C2)n1 (configuration not stated) | 2.15%
27 | Cc1ccc(-c2nnc(CN3CCc4nn(C)c(=O)cc4C3)o2)cc1 | 3.35%
28 | CCc1nc(C2CCCN2CCCc2nc3ccccc3o2)no1 (configuration not stated) | -0.084%
29 | O=C(NCC(F)(F)F)c1ccc(-c2ccco2)[nH]c1=O | -4.71%
30 | COc1cc(C(=O)N2CCCC(c3cc(C)[nH]n3)C2)ccc1C (configuration not stated) | 19.1%
31 | CCOCC(O)CN1CCN(C(=O)C(C)(C)CC)CC1 (configuration not stated) | 18.6%
32 | COCc1ccccc1C(=O)N1CCCC(c2cc(C)[nH]n2)C1 (configuration not stated) | 26.2%
33 | O=C(NCc1ccc(-n2cncn2)nc1)c1cc(Cl)c2c(c1)OCCO2 | -3.48%
34 | COc1ccc(CC(=O)Nc2cccnc2N2CCCC2)cc1OC | -1.14%
35 | COc1ccc(CNC(=O)Nc2cccnc2OC)cc1O | 22.7%
36 | O=C(Cc1ccc2c(c1)OCCO2)NCc1ccc(-n2cncn2)nc1 | -2.42%
37 | Cc1ccccc1OCCC(=O)NC(C)c1nnc2n1CCCCC2 (configuration not stated) | -2.91%
38 | Cc1cnn(CC2CN(Cc3nc(C)no3)CCO2)c1 (configuration not stated) | -1.3%
39 | CCCN1CCN(CC(O)c2ccc(OC(F)(F)F)cc2)CC1 (configuration not stated) | -0.084%
40 | N#Cc1ccccc1OCCN1CCCC1Cn1cncn1 (configuration not stated) | 3.66%
41 | COCCN1CCN(CC(O)c2ccc(OC(F)(F)F)cc2)CC1 (configuration not stated) | -2.07%
42 | Cc1nn(C)c(C)c1C1CCCN1CC(=O)NCc1ccco1 (configuration not stated) | 7.36%
43 | CC(C)c1nc2n(n1)CC(NCc1ncc(C(C)(C)C)o1)CC2 (configuration not stated) | 0.95%
44 | O=C(COCCc1ccccc1)N1CCCC(n2cncn2)C1 (configuration not stated) | 1.67%
45 | COc1ccc(Cl)cc1C(=O)N1CCCC(c2cc(C)[nH]n2)C1 (configuration not stated) | 0.303%
46 | c1cnnc(N2CCCC(NCc3cccc4c3OCCO4)C2)c1 (configuration not stated) | 6.38%
47 | Cc1nn(C)c(C)c1NC(=O)CN1CCCC1c1c(C)nn(C)c1C (configuration not stated) | -3.45%
48 | OC(CN1CCCCCCC1)c1ccc(OC(F)(F)F)cc1 (configuration not stated) | 7.33%

Row | SMILES | cytotoxicity at 70.5 h
49 | Cc1ccc(N2CCCC(NCc3cccc4c3OCO4)C2)nn1 (configuration not stated) | -0.527%
50 | O=C(CCCOCc1ccccc1)N1CCCC(n2cncn2)C1 (configuration not stated) | -1.64%
51 | Fc1ccccc1OCCN1CCCCC1Cn1cncn1 (configuration not stated) | 2.55%
52 | CN(Cc1ccccn1)C1CCCN(c2cccnn2)C1 (configuration not stated) | 3.01%
53 | CCc1nccn1C1CCCN(C(=O)C2=NN(C)C(=O)CC2)C1 (configuration not stated) | -8.58%
54 | CC(C)Cc1noc(CN2CCCC2c2noc(C3CC3)n2)n1 (configuration not stated) | -10.4%
55 | Cc1nc(C)n(C2CCCN(C(=O)c3csc(CC(C)C)n3)C2)n1 (configuration not stated) | -13.9%
56 | COc1cccc(COCC(=O)N2CCCC(c3ccn[nH]3)C2)c1 (configuration not stated) | 20.5%
57 | CCCc1noc(CN2CCCC2c2noc(C3CC3)n2)n1 (configuration not stated) | -4.28%
58 | COc1cc(C(=O)N2CCCC(CNS(C)(=O)=O)C2)ccc1C (configuration not stated) | 15.8%
59 | CS(=O)(=O)NCC1CCCN(C(=O)c2ccc(F)c(F)c2)C1 (configuration not stated) | -1.98%
60 | Cc1ccc(C(=O)N2CCCC(CNS(C)(=O)=O)C2)o1 (configuration not stated) | -7.3%
61 | CCc1ccc(C(=O)N2CCCC(CNS(C)(=O)=O)C2)o1 (configuration not stated) | -10.7%
62 | CC(Cn1cccn1)NC(=O)N1CCN(Cc2ccncc2)CC1 (configuration not stated) | -5.78%
63 | COc1cccc(C(=O)NCCCN2CCc3ccccc3C2)c1OC | -11.3%
64 | Cn1cnc2c1CCN(CCS(=O)(=O)c1ccccc1)C2 | -17%
65 | Cc1nc(C2CCCN(C(=O)COCc3ccccc3Cl)C2)no1 (configuration not stated) | -7.76%
66 | Cc1nc(C)n(CC2CN(CCCOc3ccccc3C)CCO2)n1 (configuration not stated) | 11.3%
67 | COc1c(C2CCCN2Cc2c(C)noc2C)c(C)nn1C (configuration not stated) | -5.56%
68 | O=C(C1CCN(c2snc3ccccc23)CC1)N1CCCCCC1 | 28.1%
69 | Cc1nn(C)c(N(C)C)c1CNCc1ccccc1CN(C)C | 18.8%
70 | CCc1nnc(CNCC2CCN(CC(O)c3ccccc3)CC2)o1 (configuration not stated) | 15.4%
71 | CC(OCC1CC1)C(=O)N1CCCN(Cc2cnn(C)c2)CC1 (configuration not stated) | 24.6%
72 | CC(OCC1CC1)C(=O)N1CCCN(Cc2nccn2C)CC1 (configuration not stated) | -11.2%

Row | SMILES | cytotoxicity at 70.5 h
73 | COc1cc(C(=O)NC(CC(=O)O)c2cccs2)cc(Cl)c1OC (configuration not stated) | -8.1%
74 | Cc1noc(C)c1CNCC1CCN(CC(O)c2ccccc2)CC1 (configuration not stated) | 2.35%
75 | Cc1cn2nc(N3CCCN(Cc4noc(C)n4)CC3)sc2n1 | -4.93%
76 | CN(C)CC1CN(c2ncnc3[nH]ccc23)CCO1 (configuration not stated) | 5.61%
77 | Cc1ccc(NC(=O)N2CCN(Cc3noc(C4CC4)n3)CC2)cc1 | 27.4%
78 | Cc1cc(C)cc(NS(=O)(=O)c2cc3c(c(C(=O)O)c2)OCCO3)c1 | -5.38%
79 | CCc1cccc(NS(=O)(=O)c2cc3c(c(C(=O)O)c2)OCCO3)c1 | 4.16%
80 | Cc1ccn2cc(C(=O)N3CCCC3c3c(C)nn(C)c3C)nc2c1 (configuration not stated) | -7.44%
81 | Cc1cc(C(=O)N2CCc3nnc(N)cc3C2)c(C)n1-c1cccnc1 | -1.23%
82 | O=C(C1CCC1)N1CCN(c2snc3ccccc23)CC1 | 44.7%
83 | CC(C)(O)CN1CCN(C(=O)c2sccc2C2CC2)CC1 | -6.03%
84 | COc1ccc(COCC(O)CNC(=O)c2cnc(C)cn2)cc1 (configuration not stated) | -8.25%
85 | CC(C)n1ccnc1CN1CCCN(C(=O)CC2C=CCC2)CC1 (configuration not stated) | 31.4%
86 | Cc1cnn(CCNCc2ccccc2OCc2cccnc2)c1 | -3.61%
87 | CC(NCc1cccnc1)c1ccc(OCC(=O)NC2CC2)cc1 (configuration not stated) | -8.83%
88 | Cc1csc(N2CCCN(Cc3noc(C)n3)CC2)n1 | -1.5%
89 | CCn1ncc2c1CCCC2NCc1cccc2c1OCCO2 (configuration not stated) | -13.8%
90 | Cc1nc(CN2CCCN(C(=O)C(C)OCC3CC3)CC2)cs1 (configuration not stated) | -8.36%
91 | CC(=O)Nc1nc(C(=O)NCc2ccc(N3CCCCCC3)nc2)cs1 | 7.57%
92 | Cc1ccc(-c2nc(CN3CCN(S(=O)(=O)N(C)C)CC3)cs2)o1 | 1.51%
93 | CCNC(=O)C1CCN(Cc2csc(-c3ccc(C)o3)n2)CC1 | 0.934%
94 | CCn1cnnc1CNC(=O)c1ccc(Cl)cc1F | -4.7%
95 | CC(NC(=O)NCCCN(C)S(C)(=O)=O)c1cccc(Cl)c1 (configuration not stated) | -7.23%
96 | CC(NC(=O)NCCCN(C)S(C)(=O)=O)c1ccncc1 (configuration not stated) | -3.33%

Row | SMILES | cytotoxicity at 70.5 h
97 | CC(=O)c1cccc(S(=O)(=O)N2CSCC2C(=O)NCC(F)(F)F)c1 (configuration not stated) | 5.48%
98 | O=C(NCC(F)(F)F)C1CSCN1S(=O)(=O)c1ccc(F)cc1 (configuration not stated) | -4.65%
99 | O=C(Cc1csc(-c2ccco2)n1)N1CCN(c2cnccn2)CC1 | 1.22%
100 | CC(=O)Nc1nc(C(=O)Nc2ccc(N3CCCCC3)nc2)cs1 | 13.7%
101 | COC(=O)C(c1cc(F)ccc1F)N(C)C(=O)c1ccnc(C)n1 (configuration not stated) | 1.49%
102 | c1ccc(Cn2ccnc2CN2CCOC(Cn3cccn3)C2)cc1 (configuration not stated) | 2.05%
103 | Cn1cc(C(=O)NCC2CCN(C(=O)NCC(F)(F)F)CC2)cn1 | 2.26%
104 | COCCc1noc(CN2CCN(CC(O)c3ccccc3)CC2)n1 (configuration not stated) | -6.23%
105 | CCCc1nc(CN2CCN(CC(O)c3ccccc3)CC2)no1 (configuration not stated) | -0.214%
106 | Cn1cc(C(=O)NC2CCN(C(=O)NCC3CCSCC3)CC2)cn1 | -3.27%
107 | O=C(CCc1ccc(Br)cc1F)NS(=O)(=O)c1ccc2c(c1)OCCO2 | -3.13%
108 | Cc1cc(CN(Cc2cccs2)CC2CCCO2)no1 (configuration not stated) | -0.996%
109 | CCCc1n[nH]c(C2CN(CCCOc3ccccc3)CCO2)n1 (configuration not stated) | -6.69%
110 | COCc1nc(C(=O)N2CCCC2c2c(C)nn(C)c2C)cs1 (configuration not stated) | -6.67%
111 | Cc1cc(C)n(CC2CCCN2C(=O)c2ccc3c(c2)OCO3)n1 (configuration not stated) | 6.92%
112 | COc1ccc(OCCNCCn2cccn2)cc1 | 3.51%
113 | O=C(Cc1csc(-c2ccco2)n1)N1CCN(CCO)CC1 | 5.35%
114 | Cc1cc(C)n(C2CCCN(C(=O)CCNS(C)(=O)=O)C2)n1 (configuration not stated) | 14.9%
115 | Cc1ccc(NC2CCN(C(=O)COc3cccnc3)CC2)nn1 | 22%
116 | Cc1cccc(CNC2CCCc3c2cnn3Cc2ccccc2)c1 (configuration not stated) | -7.85%
117 | Cc1nn(C)c(C)c1CNCc1ccc(N2CCOCC2)nc1 | 3.85%
